The values that follow come from US10421774B2 (priority 2016, dated 2019).

Experiment in all cases: microbe, parasite or virus in culture
Common to all, as to format: cell-based, HIV-1

Assay [1] relates to A364V site directed mutant virus. Particulars: Human immunodeficiency virus 1, MT2, read-out: A364V EC50. The gist of the method:
(§1)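 Multiple-cycle assay in MT-2 cells infected with Renilla luciferase NL4-3 (Gag P373S background) carrying site-directed Gag A364V or V370A/ΔT371 changes, inocula normalized by luciferase signal. 10,000 cells/well, 3-fold compound dilutions, 1% DMSO, 4–5 days at 37°C; yield read as Renilla luciferase.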

In another assay the test system is gag V370A/ΔT371 virus. Particulars: Human immunodeficiency virus 1, MT2, read-out: V370A/ΔT371 EC50. The gist of the method: as §1
The subject of assay [2] is NLRepRlucP373S recombinant wild type (WT) virus. The note with it: Human immunodeficiency virus 1, MT2, read-out: WT EC50. The essentials: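 MT-2 cells infected with NLRepRlucP373S Renilla luciferase reporter virus (NL4-3, Gag P373S), inocula normalized by luciferase signal; compounds 3-fold serially diluted, 1% DMSO final. Virus yield read by Renilla luciferase after 4-5 days at 37 °C. EC50/EC90 from median effect equation; background = signal at NFV 3 μM.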

Assay [3] has as its system T332S/V362I/Pr R41G virus. The note with it: Human immunodeficiency virus 1, MT2, read-out: T332S/V362I/pr41G EC50. The essentials: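 Renilla luciferase NL4-3 reporter virus (Gag P373S background) carrying Gag T332S/V362I plus protease R41G, inoculum normalized by luciferase signal, infected MT-2 cells (10,000/well). Compounds 3-fold diluted, 1% DMSO final. After 4–5 days at 37 °C, virus yield measured as Renilla luciferase activity in a multiple-cycle assay.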

For `C=C(C)[C@@H]1CC[C@]2(NC[C@@H](O)CO)CC[C@]3(C)[C@H](CC[C@@H]4[C@@]5(C)CC=C(C6=CC[C@](COc7ncccc7C(N)=O)(C(=O)O)CC6)C(C)(C)[C@@H]5CC[C@]43C)[C@@H]12` [Example A8, (R)-1-(((3-carbamoylpyridin-2-yl)oxy)methyl)-4-((1R,3aS,5aR,5bR,7aR,11aS,11bR,13aR,13bR)-3a-(((R)-2,3-dihydroxypropyl)amino)-5a,5b,8,8,11a-pentamethyl-1-(prop-1-en-2-yl)-2,3,3a,4,5,5a,5b,6,7,7a,8,11,11a,11b,12,13,13a,13b-octadecahydro-1H-cyclopenta[a]chrysen-9-yl)cyclohex-3-enecarboxylic acid], the EC50 in assay [1] turned out to be 176 nM; in the assay on gag V370A/ΔT371 virus, 23 nM; in assay [2], 4 nM; in assay [3] it was 23 nM.

For the compound `C=C(C)[C@@H]1CC[C@]2(NC[C@@H](O)COC)CC[C@]3(C)[C@H](CC[C@@H]4[C@@]5(C)CC=C(C6=CC[C@](COc7ncccc7C#N)(C(=O)O)CC6)C(C)(C)[C@@H]5CC[C@]43C)[C@@H]12` [Example A9, (R)-1-(((3-cyanopyridin-2-yl)oxy)methyl)-4-((1R,3aS,5aR,5bR,7aR,11aS,11bR,13aR,13bR)-3a-(((R)-2-hydroxy-3-methoxypropyl)amino)-5a,5b,8,8,11a-pentamethyl-1-(prop-1-en-2-yl)-2,3,3a,4,5,5a,5b,6,7,7a,8,11,11a,11b,12,13,13a,13b-octadecahydro-1H-cyclopentalalchrysen-9-yl)cyclohex-3-enecarboxylic acid], the EC50 in assay [1] was 300 nM; in the assay with gag V370A/ΔT371 virus, 12 nM; in assay [2] it was 3 nM; in assay [3] it was 12 nM.

Consider `C=C(C)[C@@H]1CC[C@]2(NC[C@H](O)COC)CC[C@]3(C)[C@H](CC[C@@H]4[C@@]5(C)CC=C(C6=CC[C@](COc7ncccc7C#N)(C(=O)O)CC6)C(C)(C)[C@@H]5CC[C@]43C)[C@@H]12` [Example A11, (R)-1-(((3-cyanopyridin-2-yl)oxy)methyl)-4-((1R,3aS,5aR,5bR,7aR,11aS,11bR,13aR,13bR)-3a-(((S)-2-hydroxy-3-methoxypropyl)amino)-5a,5b,8,8,11a-pentamethyl-1-(prop-1-en-2-yl)-2,3,3a,4,5,5a,5b,6,7,7a,8,11,11a,11b,12,13,13a,13b-octadecahydro-1H-cyclopentalalchrysen-9-yl)cyclohex-3-enecarboxylic acid], for which the EC50 in assay [1] was found to be 281 nM; with gag V370A/ΔT371 virus, 17 nM; in assay [2] it was 11 nM; in assay [3], 17 nM.

On to `C=C(C)[C@@H]1CC[C@]2(NC[C@H](O)COC)CC[C@]3(C)[C@H](CC[C@@H]4[C@@]5(C)CC=C(C6=CC[C@](COc7ncccc7C(N)=O)(C(=O)O)CC6)C(C)(C)[C@@H]5CC[C@]43C)[C@@H]12` [Example A12, (R)-1-(((3-carbamoylpyridin-2-yl)oxy)methyl)-4-((1R,3aS,5aR,5bR,7aR,11aS,11bR,13aR,13bR)-3a-(((S)-2-hydroxy-3-methoxypropyl)amino)-5a,5b,8,8,11a-pentamethyl-1-(prop-1-en-2-yl)-2,3,3a,4,5,5a,5b,6,7,7a,8,11,11a,11b,12,13,13a,13b-octadecahydro-1H-cyclopenta[a]chrysen-9-yl)cyclohex-3-enecarboxylic acid], for which the EC50 in assay [1] was determined as 69 nM; with gag V370A/ΔT371 virus, 59 nM; in assay [2], 2 nM; in assay [3], 59 nM.

As for `C=C(C)[C@@H]1CC[C@]2(NC[C@@](C)(O)CO)CC[C@]3(C)[C@H](CC[C@@H]4[C@@]5(C)CC=C(C6=CC[C@](COc7ncccc7C#N)(C(=O)O)CC6)C(C)(C)[C@@H]5CC[C@]43C)[C@@H]12` [Example A13, (R)-1-(((3-cyanopyridin-2-yl)oxy)methyl)-4-((1R,3aS,5aR,5bR,7aR,11aS,11bR,13aR,13bR)-3a-(((R)-2,3-dihydroxy-2-methylpropyl)amino)-5a,5b,8,8,11a-pentamethyl-1-(prop-1-en-2-yl)-2,3,3a,4,5,5a,5b,6,7,7a,8,11,11a,11b,12,13,13a,13b-octadecahydro-1H-cyclopentalalchrysen-9-yl)cyclohex-3-enecarboxylic acid], the EC50 in assay [1] stood at 831 nM; with gag V370A/ΔT371 virus it was 27 nM; in assay [2] it was 2 nM; in assay [3], 27 nM.

Regarding `C=C(C)[C@@H]1CC[C@]2(NC[C@@](C)(O)CO)CC[C@]3(C)[C@H](CC[C@@H]4[C@@]5(C)CC=C(C6=CC[C@](COc7ncccc7C(N)=O)(C(=O)O)CC6)C(C)(C)[C@@H]5CC[C@]43C)[C@@H]12` [Example A14, (R)-1-(((3-carbamoylpyridin-2-yl)oxy)methyl)-4-((1R,3aS,5aR,5bR,7aR,11aS,11bR,13aR,13bR)-3a-(((R)-2,3-dihydroxy-2-methylpropyl)amino)-5a,5b,8,8,11a-pentamethyl-1-(prop-1-en-2-yl)-2,3,3a,4,5,5a,5b,6,7,7a,8,11,11a,11b,12,13,13a,13b-octadecahydro-1H-cyclopenta[a]chrysen-9-yl)cyclohex-3-enecarboxylic acid], the EC50 is 114 nM in assay [1], 110 nM in the assay on gag V370A/ΔT371 virus, 5 nM in assay [2] and 110 nM in assay [3].

In the case of `C=C(C)[C@@H]1CC[C@]2(NC[C@@H](O)C(=O)O)CC[C@]3(C)[C@H](CC[C@@H]4[C@@]5(C)CC=C(C6=CC[C@](COc7ncccc7C#N)(C(=O)O)CC6)C(C)(C)[C@@H]5CC[C@]43C)[C@@H]12` [Example A15, (R)-4-((1R,3aS,5aR,5bR,7aR,11aS,11bR,13aR,13bR)-3a-(((R)-2-carboxy-2-hydroxyethyl)amino)-5a,5b,8,8,11a-pentamethyl-1-(prop-1-en-2-yl)-2,3,3a,4,5,5a,5b,6,7,7a,8,11,11a,11b,12,13,13a,13b-octadecahydro-1H-cyclopenta[a]chrysen-9-yl)-1-(((3-cyanopyridin-2-yl)oxy)methyl)cyclohex-3-enecarboxylic acid], the EC50 worked out at 794 nM in assay [1], 10 nM in the assay on gag V370A/ΔT371 virus, 3 nM in assay [2] and 10 nM in assay [3].

In the case of `C=C(C)[C@@H]1CC[C@]2(NC[C@@H](O)C(=O)O)CC[C@]3(C)[C@H](CC[C@@H]4[C@@]5(C)CC=C(C6=CC[C@](COc7ncccc7C(=O)O)(C(=O)O)CC6)C(C)(C)[C@@H]5CC[C@]43C)[C@@H]12` [Example A16, 2-(((R)-1-carboxy-4-((1R,3aS,5aR,5bR,7aR,11aS,11bR,13aR,13bR)-3a-(((R)-2-carboxy-2-hydroxyethyl)amino)-5a,5b,8,8,11a-pentamethyl-1-(prop-1-en-2-yl)-2,3,3a,4,5,5a,5b,6,7,7a,8,11,11a,11b,12,13,13a,13b-octadecahydro-1H-cyclopenta[a]chrysen-9-yl)cyclohex-3-en-1-yl)methoxy)nicotinic acid], the EC50 in assay [1] turned out to be 139 nM; in the assay with gag V370A/ΔT371 virus it was 68 nM; in assay [2], 10 nM; in assay [3], 68 nM.

`C=C(C)[C@@H]1CC[C@]2(NC[C@H](O)C(=O)O)CC[C@]3(C)[C@H](CC[C@@H]4[C@@]5(C)CC=C(C6=CC[C@](COc7ncccc7C#N)(C(=O)O)CC6)C(C)(C)[C@@H]5CC[C@]43C)[C@@H]12` [Example A17, (R)-4-((1R,3aS,5aR,5bR,7aR,11aS,11bR,13aR,13bR)-3a-(((S)-2-carboxy-2-hydroxyethyl)amino)-5a,5b,8,8,11a-pentamethyl-1-(prop-1-en-2-yl)-2,3,3a,4,5,5a,5b,6,7,7a,8,11,11a,11b,12,13,13a,13b-octadecahydro-1H-cyclopenta[a]chrysen-9-yl)-1-(((3-cyanopyridin-2-yl)oxy)methyl)cyclohex-3-enecarboxylic acid]: the EC50 in assay [1] amounted to 3000 nM; in the assay with gag V370A/ΔT371 virus, 15 nM; in assay [2] it was 3 nM; in assay [3], 15 nM.

For the compound `C=C(C)[C@@H]1CC[C@]2(NC[C@H](O)C(=O)O)CC[C@]3(C)[C@H](CC[C@@H]4[C@@]5(C)CC=C(C6=CC[C@](COc7ncccc7C(N)=O)(C(=O)O)CC6)C(C)(C)[C@@H]5CC[C@]43C)[C@@H]12` [Example A18], the EC50 was 192 nM in assay [1], 27 nM with gag V370A/ΔT371 virus, 8 nM in assay [2] and 27 nM in assay [3].

On to `C=C(C)[C@@H]1CC[C@]2(NCC(C)(O)C(=O)O)CC[C@]3(C)[C@H](CC[C@@H]4[C@@]5(C)CC=C(C6=CC[C@](COc7ncccc7C#N)(C(=O)O)CC6)C(C)(C)[C@@H]5CC[C@]43C)[C@@H]12` (stereo partly drawn) [Example A19, (1R)-4-((1R,3aS,5aR,5bR,7aR,11aS,11bR,13aR,13bR)-3a-((2-carboxy-2-hydroxypropyl)amino)-5a,5b,8,8,11a-pentamethyl-1-(prop-1-en-2-yl)-2,3,3a,4,5,5a,5b,6,7,7a,8,11,11a,11b,12,13,13a,13b-octadecahydro-1H-cyclopenta[a]chrysen-9-yl)-1-(((3-cyanopyridin-2-yl)oxy)methyl)cyclohex-3-enecarboxylic acid], for which the EC50 is over 50 nM in assay [1], 20 nM in the assay on gag V370A/ΔT371 virus, 3 nM in assay [2] and 20 nM in assay [3].
